Results taken from US20210092955A1, “METHOD OF CONTROLLING HERBICIDE RESISTANT WEEDS IN CROPS” (SUMITIMO CHEMICAL COMPANY, LIMITED, priority 2018, published 2021).

Assays:
Assay type in all cases: in vivo
[1] = system: Amaranthus palmeri having Gly210 deletion in PPO2; assay: Herbicidal effect, foliar spray in greenhouse pots (Example 4609, comparison); settings: rating 0 to 100; 25 g/ha; foliar spray 216 L/ha; 17 days after treatment; known art comparison
From the text: (§1) Plastic pots each having a diameter of 8 cm and a height of 7 cm were filled with the soil and seedlings of Amaranthus palmeri having a Gly399Ala mutation in PPO2 (originated from Mississippi, USA) were planted. After cultivation in a greenhouse for 31 days, an aqueous spray liquid prepared by diluting a predetermined amount of a commercial saflufenacil formulation (suspension concentrate containing 29.74% of saflufenacil, manufactured by BASF Corp. under the trade name of Sharpen) with water was sprayed uniformly over the weed using a sprayer in an amount of 216 L/ha. Then, the weeds were cultivated in a greenhouse for 17 days, followed by examining the herbicidal effects. For comparison, Amaranthus palmeri having Gly210 deletion in PPO2 (originated from Illinois, USA) and commercially available wild-type Amaranthus palmeri were tested.

[2] = system: wild-type Amaranthus palmeri; assay: Herbicidal effect, foliar spray in greenhouse pots (Example 4609); settings: rating 0 to 100, 25 g/ha, foliar spray 216 L/ha, 17 days after treatment
From the text: as §1

[3] = system: Amaranthus palmeri having a Gly399Ala mutation in PPO2; assay: as above; settings: rating 0 to 100; 25 g/ha; foliar spray 216 L/ha; 17 days after treatment
From the text: as §1

[4] = system: Amaranthus palmeri having an Arg128Met mutation in PPO2; assay: Soil surface treatment before sowing soybean (Example 1); settings: 10, 20, 40, or 80 g/ha on soil surface on day of weed sowing; soybean sown after 7 days; examined after 14 days
From the text: Amaranthus palmeri having an Arg128Met mutation in PPO2 is sown in a plastic pot. On the same day, a compound X is applied to the surface of soil in an amount of 10, 20, 40, or 80 g/ha by spraying 200 L/ha of an aqueous dilution containing the […]. Then, the weeds are cultivated in a greenhouse and soybean seeds are sown after 7 days, to examine the effects on the weeds and phytotoxic effects on soybean after 14 days.

[5] = system: Amaranthus palmeri having an Arg128Met mutation in PPO2; assay: Foliar treatment 21 days after sowing (Example 3); settings: 10, 20, 40, or 80 g/ha foliar treatment 21 days after sowing; examined 14 days after the treatment
From the text: Amaranthus palmeri having an Arg128Met mutation in PPO2 and soybean are sown in a plastic pot. Then, the weeds and soybean are cultivated in a greenhouse. A compound X is applied in an amount of 10, 20, 40, or 80 g/ha by spraying 200 L/ha of an aqueous dilution containing the compound X to perform foliar treatment 21 days after the sowing. Then, the weeds and soybean are cultivated in a greenhouse to examine the effects on the weeds and phytotoxic effects on soybean 14 days after the treatment.

[6] = system: Amaranthus palmeri having an Arg128Met mutation in PPO2; assay: Soil surface treatment on day of sowing weed and soybean (Example 2); settings: 10, 20, 40, or 80 g/ha on soil surface on day of sowing; examined after 21 days
From the text: Amaranthus palmeri having an Arg128Met mutation in PPO2 and soybean are sown in a plastic pot. On the same day, a compound X is applied to the surface of soil in an amount of 10, 20, 40, or 80 g/ha by spraying 200 L/ha of an aqueous dilution containing the compound X. Then, the weeds and soybean are cultivated in a greenhouse to examine the effects on the weeds and phytotoxic effects on soybean after 21 days.

[7] = system: wild-type Amaranthus palmeri; assay: Herbicidal effect, foliar spray in greenhouse pots (Example 4610); settings: rating 0 to 100; 100 g/ha; foliar spray 200 L/ha; 4 days after treatment
From the text: (§2) Plastic pots each having a diameter of 8 cm and a height of 7 cm were filled with the soil and seedlings of Amaranthus palmeri having Arg128Gly mutation in PPO2 (originated from Arkansas, USA) were planted. After cultivaited in a greenhouse for 42 days, an aqueous spray liquid prepared by diluting a predetermined amount of trifludimoxazin formulation (emulsifiable concentrate obtained by mixing 20 parts of trifludimoxazin with 80 parts liquid cocktail (5:1 mixture of cyclohexanone and Sorpol 2680X (TOHO Chemical Industry Co., Ltd.))) with water, and its mixture with saflufenacil made by additionally diluting a predetermined amount of commercial saflufenacil formulation (suspension concentrate containing 29.74% of saflufenacil, manufactured by BASF Corp. under the trade name of Sharpen) were separately sprayed over the weed using a sprayer in an amount of 200 L/ha uniformly. Then, the weeds were cultivated in a greenhouse for 4 days, followed by examininig the herbicidal effects on the weeds. For comparison, waterhemp having Gly210 deletion in PPO2 (originated from Illinois, USA), commercially available wild-type waterhemp, and commercially available wild-type Amaranthus palmeri were tested.

[8] = system: Amaranthus palmeri having Arg128Gly mutation in PPO2; assay: as above; settings: rating 0 to 100; 100 g/ha; foliar spray 200 L/ha; 4 days after treatment
From the text: as §2

[9] = system: waterhemp having Gly210 deletion in PPO2; assay: Herbicidal effect, foliar spray in greenhouse pots (Example 4610, comparison); settings: rating 0 to 100; 100 g/ha; foliar spray 200 L/ha; 4 days after treatment; known art comparison
From the text: as §2

[10] = system: wild-type waterhemp; assay: as above; settings: rating 0 to 100; 100 g/ha; foliar spray 200 L/ha; 4 days after treatment
From the text: as §2

SMILES: CC(C)N(C)S(=O)(=O)NC(=O)c1cc(-n2c(=O)cc(C(F)(F)F)n(C)c2=O)c(F)cc1Cl [Saflufenacil]
- herbicidal effect, Amaranthus palmeri Gly210 deletion [1]: 65
- herbicidal effect, Amaranthus palmeri Wild-type ([2]; Table 1): 100
- herbicidal effect, Amaranthus palmeri Wild-type ([2]; Table 2): 100
- herbicidal effect, Amaranthus palmeri Gly399Ala mutation [3]: 100

SMILES: CCOC(=O)COc1ncccc1Oc1cc(-n2c(=O)cc(C(F)(F)F)n(C)c2=O)c(F)cc1Cl [compound X, Ethyl [3-[2-chloro-4-fluoro-5-(1-methyl-6-trifluoromethyl-2,1-dioxo-1,2,3,1-tetrahydropyrimidine-3-yl)phenoxy]-2-pyridyloxy]acetate]
- effects on the weeds [4]: valuable effect
- effects on the weeds [5]: valuable effect
- effects on the weeds [6]: valuable effect

SMILES: C#CCN1C(=O)C(F)(F)Oc2cc(F)c(-n3c(=O)n(C)c(=S)n(C)c3=O)cc21 [Trifludimoxazin]
- herbicidal effect, Amaranthus palmeri Wild-type [7]: 90
- herbicidal effect, Amaranthus palmeri Arg128Gly mutation [8]: 88
- herbicidal effect, waterhemp Gly210 deletion [9]: 50
- herbicidal effect, waterhemp Wild-type [10]: 95
